In PubChem BioAssay (NCI):
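96-well plates; 48 h exposure; 5 concentrations. Endpoints by linear interpolation between flanking doses. Not reached: highest tested concentration assigned. The concentration for 50% growth inhibition is given as GI50. The concentration for full growth arrest is given as TGI.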

Key:
Experiment in all cases: DTP human tumour cell line panel, 48 h
786-0 renal = tested on: 786-0 renal
OVCAR-5 ovarian = tested on: OVCAR-5 ovarian
SF-539 CNS = tested on: SF-539 CNS
MALME-3M melanoma = tested on: MALME-3M melanoma
KM12 colon = tested on: KM12 colon
OVCAR-8 ovarian = tested on: OVCAR-8 ovarian
MCF7 breast = tested on: MCF7 breast
NCI-H23 lung = tested on: NCI-H23 lung
IGROV1 ovarian = tested on: IGROV1 ovarian
SR leukemia = tested on: SR leukemia
RXF 393 renal = tested on: RXF 393 renal
SK-OV-3 ovarian = tested on: SK-OV-3 ovarian
UACC-62 melanoma = tested on: UACC-62 melanoma
HCT-15 colon = tested on: HCT-15 colon
NCI/ADR-RES ovarian = tested on: NCI/ADR-RES ovarian
HS 578T breast = tested on: HS 578T breast
HOP-92 NSCLC = tested on: HOP-92 NSCLC
SF-268 CNS = tested on: SF-268 CNS
SK-MEL-2 melanoma = tested on: SK-MEL-2 melanoma
U251 CNS = tested on: U251 CNS
NCI-H522 lung = tested on: NCI-H522 lung
SF-295 CNS = tested on: SF-295 CNS
K-562 leukemia = tested on: K-562 leukemia
NCI-H460 lung = tested on: NCI-H460 lung
ACHN renal = tested on: ACHN renal
SK-MEL-28 melanoma = tested on: SK-MEL-28 melanoma
A549 NSCLC = tested on: A549 NSCLC
DU-145 prostate = tested on: DU-145 prostate
OVCAR-3 ovarian = tested on: OVCAR-3 ovarian
TK-10 renal = tested on: TK-10 renal
CAKI-1 renal = tested on: CAKI-1 renal
T-47D breast = tested on: T-47D breast
PC-3 prostate = tested on: PC-3 prostate
OVCAR-4 ovarian = tested on: OVCAR-4 ovarian
MDA-MB-231 breast = tested on: MDA-MB-231 breast
SK-MEL-5 melanoma = tested on: SK-MEL-5 melanoma
HL-60(TB) leukemia = tested on: HL-60(TB) leukemia
UACC-257 melanoma = tested on: UACC-257 melanoma
NCI-H226 lung = tested on: NCI-H226 lung
COLO 205 colon = tested on: COLO 205 colon
M14 melanoma = tested on: M14 melanoma
HOP-62 NSCLC = tested on: HOP-62 NSCLC
SNB-19 CNS = tested on: SNB-19 CNS
MDA-MB-435 = tested on: MDA-MB-435
SN12C renal = tested on: SN12C renal
SW-620 colon = tested on: SW-620 colon
UO-31 renal = tested on: UO-31 renal
HT29 colon = tested on: HT29 colon
HCT-116 colon = tested on: HCT-116 colon
SNB-75 CNS = tested on: SNB-75 CNS
MOLT-4 leukemia = tested on: MOLT-4 leukemia
LOX IMVI melanoma = tested on: LOX IMVI melanoma
A498 renal = tested on: A498 renal
CCRF-CEM leukemia = tested on: CCRF-CEM leukemia
HCC-2998 colon = tested on: HCC-2998 colon
RPMI-8226 leukemia = tested on: RPMI-8226 leukemia

Clc1ccccc1CN1COc2c(cc(Cl)c3cccnc23)C1
TGI (786-0 renal): 18.9 µM | TGI (OVCAR-5 ovarian): 15.1 µM | TGI (SF-539 CNS): 10.9 µM | TGI (MALME-3M melanoma): 11.1 µM | TGI (KM12 colon): 14.6 µM | TGI (OVCAR-8 ovarian): 13.9 µM | TGI (MCF7 breast): 86.5 µM | TGI (NCI-H23 lung): 13.2 µM | TGI (IGROV1 ovarian): 23.7 µM | TGI (SR leukemia): 4 µM | TGI (RXF 393 renal): 39.6 µM | TGI (SK-OV-3 ovarian): 21.2 µM | TGI (UACC-62 melanoma): 3.8 µM | TGI (HCT-15 colon): 10.9 µM | TGI (NCI/ADR-RES ovarian): 1.74 µM | TGI (HS 578T breast): 23.4 µM | TGI (HOP-92 NSCLC): 23 µM | TGI (SF-268 CNS): 46.5 µM | TGI (SK-MEL-2 melanoma): 26.1 µM | TGI (U251 CNS): 14.1 µM | TGI (NCI-H522 lung): 15.7 µM | TGI (SF-295 CNS): 16.6 µM | TGI (K-562 leukemia): 11.9 µM | TGI (NCI-H460 lung): 27.4 µM | TGI (ACHN renal): 13.4 µM | TGI (SK-MEL-28 melanoma): 25.9 µM | TGI (A549 NSCLC): 13.6 µM | TGI (DU-145 prostate): 21 µM | TGI (OVCAR-3 ovarian): 26.4 µM | TGI (TK-10 renal): 26.5 µM | TGI (CAKI-1 renal): 24 µM | TGI (T-47D breast): > 100 µM | TGI (PC-3 prostate): 18.7 µM | TGI (OVCAR-4 ovarian): 14.2 µM | TGI (MDA-MB-231 breast): 9.33 µM | TGI (SK-MEL-5 melanoma): 5.78 µM | TGI (HL-60(TB) leukemia): 8.9 µM | TGI (UACC-257 melanoma): 12.3 µM | TGI (NCI-H226 lung): 4.09 µM | TGI (COLO 205 colon): 43.2 µM | TGI (M14 melanoma): 21.7 µM | TGI (HOP-62 NSCLC): 18.7 µM | TGI (SNB-19 CNS): 17.2 µM | TGI (MDA-MB-435): 20.9 µM | TGI (SN12C renal): 0.494 µM | TGI (SW-620 colon): 21 µM | TGI (UO-31 renal): 21.7 µM | TGI (HT29 colon): 36.6 µM | TGI (HCT-116 colon): 15.4 µM | TGI (SNB-75 CNS): 18.8 µM | TGI (MOLT-4 leukemia): 1.12 µM

CC(C)(C)C(=O)OCCNc1nc(-c2ccccc2)nc2ccccc12
GI50 (786-0 renal): 3.4 µM | TGI (786-0 renal): 19 µM | GI50 (LOX IMVI melanoma): 10.3 µM | TGI (LOX IMVI melanoma): 22 µM | GI50 (OVCAR-5 ovarian): 14.6 µM | TGI (OVCAR-5 ovarian): 27.8 µM | GI50 (KM12 colon): 3.94 µM | TGI (KM12 colon): 17.4 µM | GI50 (OVCAR-8 ovarian): 13.5 µM | TGI (OVCAR-8 ovarian): 42.8 µM | GI50 (MCF7 breast): 17.3 µM | TGI (MCF7 breast): 43.2 µM | GI50 (NCI-H23 lung): 12.1 µM | TGI (NCI-H23 lung): 24.5 µM | GI50 (IGROV1 ovarian): 29.5 µM | TGI (IGROV1 ovarian): > 100 µM | GI50 (SR leukemia): 5.44 µM | TGI (SR leukemia): 61.5 µM | GI50 (RXF 393 renal): 15.4 µM | TGI (RXF 393 renal): 32 µM | GI50 (SK-OV-3 ovarian): 17.7 µM | TGI (SK-OV-3 ovarian): 38.9 µM | GI50 (UACC-62 melanoma): 14.5 µM | TGI (UACC-62 melanoma): 27.5 µM | GI50 (HCT-15 colon): 12.3 µM | TGI (HCT-15 colon): 24.8 µM | GI50 (NCI/ADR-RES ovarian): 16.6 µM | TGI (NCI/ADR-RES ovarian): 51.6 µM | GI50 (HS 578T breast): 11.5 µM | TGI (HS 578T breast): 25.6 µM | GI50 (HOP-92 NSCLC): 12.6 µM | TGI (HOP-92 NSCLC): 29 µM | GI50 (SF-268 CNS): 16.8 µM | TGI (SF-268 CNS): 35.7 µM | GI50 (SK-MEL-2 melanoma): 31.1 µM | TGI (SK-MEL-2 melanoma): > 100 µM | GI50 (U251 CNS): 11.5 µM | TGI (U251 CNS): 23.6 µM | GI50 (NCI-H522 lung): 27.5 µM | TGI (NCI-H522 lung): > 100 µM | GI50 (A498 renal): 15.1 µM | TGI (A498 renal): 29 µM | GI50 (SF-295 CNS): 10.7 µM | TGI (SF-295 CNS): 22.5 µM | GI50 (K-562 leukemia): 2.11 µM | TGI (K-562 leukemia): 10.9 µM | GI50 (NCI-H460 lung): 16.6 µM | TGI (NCI-H460 lung): 34.7 µM | GI50 (ACHN renal): 13.6 µM | TGI (ACHN renal): 26.5 µM | GI50 (SK-MEL-28 melanoma): 18.3 µM | TGI (SK-MEL-28 melanoma): 40.1 µM | GI50 (A549 NSCLC): 16.8 µM | TGI (A549 NSCLC): 39.5 µM | GI50 (DU-145 prostate): 13.3 µM | TGI (DU-145 prostate): 26.1 µM | GI50 (OVCAR-3 ovarian): 3.68 µM | TGI (OVCAR-3 ovarian): 19.3 µM | GI50 (TK-10 renal): 11 µM | TGI (TK-10 renal): 23 µM | GI50 (CAKI-1 renal): 11.6 µM | TGI (CAKI-1 renal): 23.8 µM | GI50 (T-47D breast): 22.5 µM | TGI (T-47D breast): 93.3 µM | GI50 (PC-3 prostate): 15.6 µM | TGI (PC-3 prostate): 32.6 µM | GI50 (OVCAR-4 ovarian): 23.3 µM | TGI (OVCAR-4 ovarian): 73.1 µM | GI50 (SK-MEL-5 melanoma): 15.5 µM | TGI (SK-MEL-5 melanoma): 28.8 µM | GI50 (NCI-H226 lung): 20.2 µM | TGI (NCI-H226 lung): 67.1 µM | GI50 (COLO 205 colon): 16.2 µM | TGI (COLO 205 colon): 37.9 µM | GI50 (M14 melanoma): 7.57 µM | TGI (M14 melanoma): 20.5 µM | GI50 (HOP-62 NSCLC): 13 µM | TGI (HOP-62 NSCLC): 25.6 µM | GI50 (CCRF-CEM leukemia): 12.7 µM | TGI (CCRF-CEM leukemia): 35 µM | GI50 (SNB-19 CNS): 17.3 µM | TGI (SNB-19 CNS): 34.9 µM | GI50 (MDA-MB-435): 15.7 µM | TGI (MDA-MB-435): 29.1 µM | GI50 (SN12C renal): 15.1 µM | TGI (SN12C renal): 28.4 µM | GI50 (HCC-2998 colon): 16.4 µM | TGI (HCC-2998 colon): 29.9 µM | GI50 (RPMI-8226 leukemia): 3.7 µM | TGI (RPMI-8226 leukemia): 25.7 µM | GI50 (UO-31 renal): 13.2 µM | TGI (UO-31 renal): 36.1 µM | GI50 (HCT-116 colon): 11.5 µM | TGI (HCT-116 colon): 23.7 µM | GI50 (MOLT-4 leukemia): 2.1 µM | TGI (MOLT-4 leukemia): 19 µM
